The nature of one series: Solubility. The class given is physicochemical.
The next series has as its target HDAC1 (Homo sapiens (Human), UniProt Q13547). In words: HDAC enzyme assay, HDAC1. The series is classed as biochemical. The method, then:
(§1) Compounds for testing were diluted in DMSO to 50 fold the final concentration and a ten point three fold dilution series was made. The compounds were diluted in assay buffer (50 mM HEPES, pH 7.4, 100 mM KCl, 0.001% Tween-20, 0.05% BSA, 20 μM tris(2-carboxyethyl)phosphine) to 6 fold their final concentration. The HDAC enzymes (purchased from BPS Biosciences) were diluted to 1.5 fold their final concentration in assay buffer and pre-incubated with the compounds for 24 hours prior to addition of the substrate.
(§2) The substrate tripeptide substrate 3 (synthesized in house) for each enzyme was equal to the Km as determined by a substrate titration curve. The substrates were diluted in assay buffer at 6× their final concentration with 0.3 μM sequencing grade trypsin (Sigma). The substrate/trypsin mix was added to the enzyme/compound mix, the plate was shaken for 60 seconds and placed into a Spectramax M5 microtiter plate reader. The development of fluorescence was monitored for 30 min and the linear rate of the reaction was calculated. The IC50 was determined using Graph Pad Prism by a four parameter curve fit. The IC50 values obtained for the compounds of this invention are found in Table 1. Examples of the curves are found in FIGS. 1 and 4.

For a further series, the target named is hERG channel (Homo sapiens (Human), UniProt Q12809). Nature of the series: hERG assay (QPatch, CHO cell line expressing hERG channels). The class given is cell-based. Conditions: for hERG: In vitro tox. As to the method:
For hERG assays, a CHO cell line stably transfected with hERG cDNA and expressing hERG channels were seeded into a QPatch plate (Sophion) at a density of 3-8×10^6 cells/ml. The cells were voltage clamped at a holding potential of −80 mV. The hERG current was activated by depolarizing at +20 mV for 5 sec, after which the current was taken back to −50 mV for 5 sec to remove the inactivation and observe the deactivating tail current. The maximum amount of tail current size was used to determine hERG current amplitude. Six doses (30, 10, 3, 1, 0.3 and 0.1 μM) of Compound 003 were chosen to obtain fitting curves and IC50. Data were analyzed using Assay Software provided by Sophion and Graphpad Prism.
(In general: hERG is a cardiac potassium channel; its block is linked to QT prolongation.)

Series [1] deals with CYP1A2, CYP2C9, CYP2C19, CYP3A4, CYP2D6. In words: Cyp inhibition in human liver microsomes. The class given is in vitro ADME. The following applies: for Cyp: In vitro tox, human liver microsomes. As to the method:
For Cyp inhibition, human live microsomes from BD Gentest were incubated with Compound 003 (10, 3.33, 1.11, 0.37, 0.12, 0.04, 0.01 μM) and substrate (CYP1A2: Phenacetin at 30 μM; CYP2C9: Diclofenac at 10 μM; CYP2C19: S-Mephenytoin at 35 μM; CYP3A4: Midazolam at 5 μM and Testosterone at 80 μM; CYP2D6: Bufuralol at 10 μM) for the following incubation times: CYP1A2, 2C9, 2D6: 10 minutes, 37° C.; CYP2C19: 45 minutes, 37° C.; CYP3A4: 5 minutes, 37° C. Substrate conversion was measured by liquid chromatography/mass spectrometry/mass spectrometry (LC/MS/MS). Inhibition was calculated by curve fitting in Graph Pad Prism.
In general terms: Liver microsomes are vesicles of endoplasmic reticulum, rich in cytochrome P450 enzymes.

A further series deals with HDAC3 (Homo sapiens (Human), UniProt O15379). Nature of the series: HDAC enzyme assay, HDAC3. The series is classed as biochemical. The method, then:
as §1, §2

Series [2] relates to fetal β-like globin (HbG, γ). Nature of the series: Fetal globin induction assay in CD34+ cells isolated from human bone marrow. The class given is cell-based. The following applies: for Cell based assay potency: lowest concentration to achieve a 2 fold increase in fetal globin gene expression over baseline. The method, then: CD34+ cells isolated from human bone marrow were cultured in vitro using a method described by Bradner J E (Proc Natl Acad Sci USA. 2010 Jul. 13; 107(28):12617-22), which consists of a 7 day expansion phase in media that supports differentiation of cells towards the erythroid lineage followed by a differentiation phase for 3 days where erythroid cell development continues. At the end of the differentiation period these cells are primarily late erythroblasts. mRNA levels were determined by quantitative real time PCR using primer/probe sets designed to adult major β-globin (β), adult minor β-globin (δ), fetal β-like globin (HbG, γ), and embryonic β-like globin (ε). Protein levels were determined by flow cytometry using fluorescent antibodies against fetal hemoglobin (HbF) or adult hemoglobin (HbA).
In the experiment shown in FIG. 3, cells were differentiated in the presence of vehicle (DMSO) 0.3, 1 and 3 μM of Compound A, and of 0.3, 1, and 3 μM of Compound 003. In the experiment shown in FIG. 6, cells were differentiated in the presence of vehicle (DMSO) 0.3, 1 and 3 μM of Compound A, and of 0.3, 1, and 3 μM of Compound 005. Globin mRNA levels were determined at day 3 of differentiation.

For a further series, the target named is HDAC2 (Homo sapiens (Human), UniProt Q92769). Nature of the series: HDAC enzyme assay, HDAC2. The class given is biochemical. The method, then: as §1, §2
Series [3] can be described thus: Rat cassette pharmacokinetics. Conditions: male, SD, plasma; for bioavailability: 5 mg/kg, rat, oral AUC to IV AUC, dose adjusted; for AUC / Cmax / half-life / CL renal: rat cassette dosing; for AUC / Cmax / half-life: 5 mg/kg PO; for half-life: read-out: PO T½ (converted); for CL renal: IV 1 mg/kg, read-out: IV Clr. (converted). The series is classed as in vivo. The method, then:
Male SD rats were fasted overnight. Compounds of the invention were dissolved in dimethyl acetamide at 10 times the final concentration, then Solutol HS 15 (BASF) was added to a final concentration of 10%. Finally 80% saline was added and vortexed to achieve a clear solution. For the IV dosing three animals were injected via the foot dorsal vein with 1 mg/kg compound. For the PO dosing 5 mg/kg of compound was delivered by oral gavage. Blood was collected via the tail vein into K2EDTA tubes at 5 minutes, 15 minutes, 30 minutes, 1 hour, 2 hours, 4 hours, 8 hours and 24 hours after dosing. The blood was centrifuged at 2000 g for 5 minutes at 4° C. to obtain plasma. The plasma was extracted with acetonitrile and the level of compound was analyzed by LC/MS/MS. The level of compound in plasma was calculated from a standard curve in rat plasma. The IV clearance and area under the curve were calculated using WinNonLin software. The dose adjusted area under the curve for the IV and oral dosing were used to calculate the oral bioavailability.

For series [4], the system named is bacterial tester strains TA98, TA100, TA1535 and TA97a and E. coli tester strain WP2 uvrA. In words: Ames genotoxicity (bacterial reverse mutation). The method, then: For genotoxicity, bacterial tester strains TA98, TA100, TA1535 and TA97a as described by Ames et al. (1975) and the E. coli tester strain WP2 uvrA as described by Green and Muriel (1976) were incubated with Compound 003 at 250, 75, 25, 7.5, 2.5, 0.75, 0.25, and 0.075 μg/well in 24 well plates either with or without liver homogenate (S9) purchased commercially (MolTox; Boone, N.C.) prepared from male Sprague Dawley rats that have been injected intraperitonealy with Aroclor 1254 (200 mg/mL in corn oil), at a dose of 500 mg/kg, 5 days before sacrifice. Mutagenicity is evaluated by counting the number of colonies that form on non-permissive media.

Series [5] has as its system human peripheral blood lymphocytes (HPBL). Nature of the series: Micronucleus formation assay. The class given is cell-based. The method, then:
Genotoxicity was further evaluated by micronucleus formation assay in human peripheral blood lymphocytes (HPBL). HPBL were obtained from healthy donors and exposed to Compound 003 at […] for 4 hours with or without S9 activation. The cells were washed with PBS and incubated in complete medium with 6 μg/ml cytocholasin B for 24 hours. The cells were then lysed, fixed, and mounted on microscope slides. The number of mononucleated, binucleated, and micronucleated cells was counted under blinded conditions.

The next series in a line: Microsome stability. The series is classed as in vitro ADME.
A further series has as its system Gata2 mRNA. In words: Gata2 mRNA induction in erythroid progenitors. The series is classed as cell-based, human. The following applies: primary erythroid progenitors, 3 days differentiation, relative to beta-actin mRNA (FIG. 7). The source says: Human bone marrow derived CD34+ cells were expanded for 7 days as described by Sankaran et al., Science, vol. 322(5909), pp. 1839-42 (2008). Cells were then differentiated, in the presence of the indicated concentration of Compound 005, Compound A (another known HDAC1/2 inhibitor), or vehicle control (DMSO), for 3 days in media supporting erythropoiesis (Hu et al., “Isolation and functional characterization of human erythroblasts at distinct stages: implications for understanding of normal and disordered erythropoiesis in vivo”, Blood, vol. 121(16), pp. 3246-53 ([…])). Gata2 mRNA was determined using quantitative real time PCR and expressed relative to the level beta-actin mRNA control.

Setting [6] is: 24 hours pre-incubation with enzyme, read-out: IC50 (nM) HDAC1.
Setting [7] is: 24 hours pre-incubation with enzyme, read-out: IC50 (nM) HDAC3.
[8] abbreviates: 24 hours pre-incubation with enzyme, read-out: IC50 (nM) HDAC2.

SMILES strings stand for the structures. Converted amounts (≈) assume the structure as drawn. Where two headings read alike, the source gives them in different places.

Chain of HDAC3 (O15379 whole entry): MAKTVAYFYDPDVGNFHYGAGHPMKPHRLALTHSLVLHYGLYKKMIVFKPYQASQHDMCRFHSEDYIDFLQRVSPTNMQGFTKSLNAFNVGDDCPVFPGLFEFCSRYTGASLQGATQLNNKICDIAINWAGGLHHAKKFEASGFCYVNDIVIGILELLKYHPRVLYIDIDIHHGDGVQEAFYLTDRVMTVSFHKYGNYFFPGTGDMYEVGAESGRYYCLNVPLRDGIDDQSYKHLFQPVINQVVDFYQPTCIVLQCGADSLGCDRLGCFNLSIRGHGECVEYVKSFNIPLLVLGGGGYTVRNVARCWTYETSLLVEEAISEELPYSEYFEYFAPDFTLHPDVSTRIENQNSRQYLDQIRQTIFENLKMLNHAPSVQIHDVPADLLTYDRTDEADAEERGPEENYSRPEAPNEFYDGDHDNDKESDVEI
Chain of HDAC3 (Q9Y618 395-489 partner): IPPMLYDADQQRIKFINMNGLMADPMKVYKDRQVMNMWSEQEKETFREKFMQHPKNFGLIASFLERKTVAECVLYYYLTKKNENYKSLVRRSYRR
Chain of HDAC1 (Q13547 whole entry): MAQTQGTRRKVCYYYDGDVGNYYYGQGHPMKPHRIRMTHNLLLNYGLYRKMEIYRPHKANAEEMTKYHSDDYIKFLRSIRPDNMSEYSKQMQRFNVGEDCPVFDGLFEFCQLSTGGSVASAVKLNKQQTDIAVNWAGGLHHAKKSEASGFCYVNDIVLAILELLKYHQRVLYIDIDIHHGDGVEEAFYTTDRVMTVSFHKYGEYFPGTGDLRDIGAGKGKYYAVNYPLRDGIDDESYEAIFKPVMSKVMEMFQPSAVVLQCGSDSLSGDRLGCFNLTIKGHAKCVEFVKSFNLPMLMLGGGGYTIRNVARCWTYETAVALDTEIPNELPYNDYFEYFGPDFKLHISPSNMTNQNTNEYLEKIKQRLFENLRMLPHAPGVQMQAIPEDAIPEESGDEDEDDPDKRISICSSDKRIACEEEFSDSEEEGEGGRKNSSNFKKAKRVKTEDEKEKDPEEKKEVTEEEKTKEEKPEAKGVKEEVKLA
Chain of HDAC2 (Q92769 whole entry): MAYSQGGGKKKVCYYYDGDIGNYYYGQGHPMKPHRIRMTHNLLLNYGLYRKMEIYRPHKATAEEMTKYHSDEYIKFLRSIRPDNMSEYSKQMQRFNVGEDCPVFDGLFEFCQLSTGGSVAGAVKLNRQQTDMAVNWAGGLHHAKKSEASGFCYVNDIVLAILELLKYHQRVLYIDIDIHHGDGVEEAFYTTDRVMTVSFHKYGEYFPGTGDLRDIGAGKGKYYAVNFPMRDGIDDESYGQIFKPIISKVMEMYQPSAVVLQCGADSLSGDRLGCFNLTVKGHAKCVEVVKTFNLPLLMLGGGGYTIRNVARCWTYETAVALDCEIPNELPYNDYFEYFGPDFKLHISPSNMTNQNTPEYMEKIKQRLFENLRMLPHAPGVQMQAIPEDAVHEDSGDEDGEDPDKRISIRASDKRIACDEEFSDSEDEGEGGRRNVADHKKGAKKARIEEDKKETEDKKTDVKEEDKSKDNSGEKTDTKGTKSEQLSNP
Chain of hERG channel (Q12809 whole entry): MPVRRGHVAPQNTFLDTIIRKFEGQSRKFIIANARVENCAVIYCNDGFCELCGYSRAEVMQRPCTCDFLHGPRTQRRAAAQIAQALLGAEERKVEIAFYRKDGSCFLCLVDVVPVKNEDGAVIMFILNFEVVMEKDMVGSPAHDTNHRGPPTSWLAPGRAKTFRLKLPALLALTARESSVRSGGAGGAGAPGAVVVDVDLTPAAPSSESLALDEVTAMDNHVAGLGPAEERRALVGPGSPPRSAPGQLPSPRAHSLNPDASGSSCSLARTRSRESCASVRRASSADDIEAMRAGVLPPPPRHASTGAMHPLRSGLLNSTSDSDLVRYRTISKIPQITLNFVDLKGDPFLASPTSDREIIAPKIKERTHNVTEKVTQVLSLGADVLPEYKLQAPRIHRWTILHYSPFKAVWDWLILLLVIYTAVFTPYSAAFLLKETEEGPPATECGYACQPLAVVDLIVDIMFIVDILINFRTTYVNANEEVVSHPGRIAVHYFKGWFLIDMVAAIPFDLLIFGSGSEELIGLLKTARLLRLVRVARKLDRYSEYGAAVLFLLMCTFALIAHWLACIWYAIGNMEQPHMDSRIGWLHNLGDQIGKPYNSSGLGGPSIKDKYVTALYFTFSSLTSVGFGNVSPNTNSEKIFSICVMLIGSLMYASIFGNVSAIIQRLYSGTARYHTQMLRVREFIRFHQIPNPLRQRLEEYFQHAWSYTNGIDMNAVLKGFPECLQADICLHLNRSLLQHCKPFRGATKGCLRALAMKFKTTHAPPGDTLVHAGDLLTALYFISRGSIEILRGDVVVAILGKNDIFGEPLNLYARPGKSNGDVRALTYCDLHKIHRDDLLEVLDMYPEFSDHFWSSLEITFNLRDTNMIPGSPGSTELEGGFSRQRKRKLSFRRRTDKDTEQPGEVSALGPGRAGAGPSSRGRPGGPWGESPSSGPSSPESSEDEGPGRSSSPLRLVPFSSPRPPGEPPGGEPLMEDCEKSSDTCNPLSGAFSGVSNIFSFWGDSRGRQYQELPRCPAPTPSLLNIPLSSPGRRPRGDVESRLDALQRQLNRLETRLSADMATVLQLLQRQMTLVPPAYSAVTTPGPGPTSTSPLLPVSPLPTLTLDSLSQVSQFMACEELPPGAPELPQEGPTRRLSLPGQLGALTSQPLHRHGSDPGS

In general, solubility refers to the concentration that dissolves in the medium under given conditions. The low end stands for little dissolved substance, the high end for much dissolved substance. Usually IC50 stands for the midpoint of a concentration-inhibition curve. Broadly, the AUC is the area under the concentration-time curve, a measure of exposure. Read a low AUC as low exposure. The term Cmax denotes the maximum level reached in the sampled fluid or tissue. Take `CC(C)C1(Nc2ncc(C(=O)Nc3cc(-c4cccs4)ccc3N)cn2)CCN(C(=O)N2CCN(C)CC2)CC1` [Compound 002]: in “Solubility”, the concentration in solution (solubility) was 42.7 µM (≈ 24 µg/mL). Moreover, the IC50 on HDAC1 (setting [6]) was determined as 7 nM. This compound also returned a hERG on hERG channel greater than 30 µM. For the same compound, the Cyp in [1] was greater than 10 µM. For the same compound, the IC50 on HDAC3 (setting [7]) worked out at 203 nM. Further, in [2], the “Cell based assay potency” value was 3000 nM. For the same compound, at HDAC2 (setting [8]), the IC50 turned out to be 28 nM. In addition, in series [3], the bioavailability was 142%, the AUC came out at 6090 ng·h/mL, the Cmax worked out at 1010 ng/mL and the half-life was 5.9 h. Besides, the CL renal in series [3] was 20 mL/min/kg.
`Nc1ccc(-c2cccs2)cc1NC(=O)c1cnc(NC2CCN(C(=O)N3CCOCC3)CC2)nc1` [Compound 003] came in with a solubility in the series “Solubility” of 54 µM (≈ 27.4 µg/mL). For the same compound, in [4] (In vitro tox), the Ames entry is given as “Neg”. For the same compound, the “number of revertant colonies” value in [4] (any strain, with or without S9 activation) is listed as “did not increase”. In addition, the MN entry in [5] (In vitro tox) is listed as “Neg”. Further, the “number of micronucleated cells” value in [5] (any concentration, 4 hours with or without S9 activation) was “did not increase”. Also, on HDAC1 (setting [6]), the IC50 was 15 nM. For the same compound, the hERG at hERG channel is greater than 30 µM. At hERG channel (at the highest concentration of 30 μM), the “inhibition of the activity of the hERG channel” value was “did not inhibit”. In the series “Microsome stability”, this compound returned a Microsome stability of 4.7 min. Moreover, in [1], the Cyp is greater than 10 µM. The “inhibition of activity of any Cyp” value in [1] (up to 10 μM) is given as “did not inhibit”. Moreover, the IC50 on HDAC3 (setting [7]) came out at 204 nM. The “Cell based assay potency” value in series [2] was found to be 3000 nM. Further, on HDAC2 (setting [8]), the IC50 stood at 56 nM. In addition, in series [3], the bioavailability is 118%, the AUC came to 59900 ng·h/mL, the peak level (Cmax) was 2320 ng/mL and the half-life is 17 h. In series [3], the CL renal was 2 mL/min/kg.
On to `Nc1ccc(-c2cccs2)cc1NC(=O)c1ccc(NC2CCN(C(=O)N3CCCC3)CC2)cc1` [Compound 006], for which the IC50 at HDAC1 (setting [6]) was determined as 4.7 nM. On hERG channel, this compound had a hERG greater than 30 µM. The same compound yielded a Cyp in [1] greater than 10 µM. Besides, the IC50 at HDAC3 (setting [7]) is 274 nM. Also, the IC50 at HDAC2 (setting [8]) is 22 nM. In series [3], the bioavailability worked out at 76%, the AUC came to 31600 ng·h/mL, the peak level (Cmax) was 1520 ng/mL and the half-life was 14.5 h. Besides, the CL renal in series [3] is 2.5 mL/min/kg.
Regarding `Nc1ccc(-c2cccs2)cc1NC(=O)c1ccc2nc(N3CCNCC3)ccc2c1` [Compound A, reference compound], the IC50 on HDAC1 (reference compound, read-out: IC50 for HDAC1) was roughly 4 nM; on HDAC3 (reference compound, read-out: IC50 for HDAC3) it was roughly 114 nM; on HDAC2 (reference compound, read-out: IC50 for HDAC2), roughly 15 nM. Further, the “induction of % HbG” value in series [2] (primary erythroid progenitors, 3 days differentiation (FIG. 6)) was “equivalent dose and time-dependent induction”. Moreover, the “induction of Gata2 mRNA” value with Gata2 mRNA is “equivalent dose and time-dependent induction”.
In the series “Solubility”, `CC(C)NC(=O)N1CCC(C)(Nc2ncc(C(=O)Nc3cc(-c4cccs4)ccc3N)cn2)CC1` [Compound 001] gave a solubility of 16.9 µM (≈ 8.34 µg/mL). Moreover, on HDAC1 (setting [6]), the IC50 came to 6.5 nM. The compound also registered a hERG at hERG channel greater than 30 µM. The compound further registered a Microsome stability in the series “Microsome stability” of 11 min. Also, the IC50 on HDAC3 (setting [7]) worked out at 427 nM. Also, in series [2], the “Cell based assay potency” value amounted to 3000 nM. For the same compound, the IC50 at HDAC2 (setting [8]) came to 38 nM. In addition, in [3], the bioavailability worked out at 63%, the AUC worked out at 5960 ng·h/mL, the peak level (Cmax) was 988 ng/mL and the half-life was 3.8 h. Besides, the CL renal in series [3] is 8.83 mL/min/kg.

Source of the values: US9790180B2, “Piperidine derivatives as HDAC1/2 inhibitors” (Acetylon Pharmaceuticals, Inc., priority 2014, dated 2017).
